Structures can show the parent of a compound that is named as a salt.
Tests used:
[1] = target: T1, 5-HT1 receptor (Canis lupus familiaris, UniProt P79250); test: Contraction of the vena saphena isolated from dogs; design: species or system dog; details: % of maximum effect induced by KCl, after phenoxybenzamine, cumulative doses 10^-9 to 10^-4 M, read-out: 50% effective concentration (EC50)
T1 construct: The venae saphenae are rapidly removed and cut into rings; from tissue; host or cells: dog saphenous vein rings
T1 sequence (P79250 whole entry): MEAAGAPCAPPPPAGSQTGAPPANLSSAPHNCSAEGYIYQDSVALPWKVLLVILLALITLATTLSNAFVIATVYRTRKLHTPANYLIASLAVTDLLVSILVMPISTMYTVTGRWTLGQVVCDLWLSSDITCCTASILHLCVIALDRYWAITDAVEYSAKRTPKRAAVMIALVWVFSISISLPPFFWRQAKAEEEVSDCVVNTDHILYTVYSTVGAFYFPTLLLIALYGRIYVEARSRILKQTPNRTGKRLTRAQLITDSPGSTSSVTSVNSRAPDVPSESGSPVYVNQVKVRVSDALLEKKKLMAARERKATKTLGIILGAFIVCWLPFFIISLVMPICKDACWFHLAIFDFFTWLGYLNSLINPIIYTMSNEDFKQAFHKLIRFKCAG
Method: (§1) Contraction of the vena saphena
(§2) Experiments are carried out on venae saphenae of dogs (10-25kg) or rabbits (2-3 kg) anesthetized with pentobarbital (30 mg/kg i.v.). The venae saphenae are rapidly removed and cut into rings. These rings are mounted between two hooks in tanks thermostatically controlled at 37° C. containing physiological solution (composition in mM: NaCl118.3; KCl 4.7; CaCl2 2.5; MgSO4 1.2; KH2 PO4 1.2; NaHCO3 25.0; Ca-EDTA 0.026 and glucose 11.1). A mixture of 95% O2 /5% CO2 is bubbled through the physiological solution. The lower hook constitutes the fixed point whereas the upper hook is connected to an isometric force sensor. The tissues are put under a base tension of 1.5 grams (dogs) and 1 gram (rabbits). The pharmacological substances studied are prepared immediately before use; they are dissolved in water or in dimethyl sulfoxide.
(§3) After mounting, the preparations are left standing for 60 minutes, rinsings being carried out every 30 minutes. The organ is then brought into contact with phenoxybenzamine (5×10^-8 M) for 20 minutes. This agent is removed by several successive washings over 45 minutes. After readjusting the base tension, a contraction is caused by KCl (100 mM).

[2] = target: 5-HT1 receptor; test: Contraction of the vena saphena isolated from rabbits; design: species or system rabbit; details: % of maximum effect induced by KCl, after phenoxybenzamine, cumulative doses 10^-9 to 10^-4 M, read-out: 50% effective concentration (EC50)
Method: as §1, §2, §3

CCCN1CCC(Cc2c[nH]c3ccc(C(N)=O)cc23)C1 (centres unmarked) [Example 17, 3-[(1-Propylpyrrolidin-3-yl)methyl]-5-aminocarbonylindole, oxalate]
EC50 [1]: 340 nM | EC50 [2]: 410 nM

Source: patent US5348968A, “Indole, indazole and benzisoxazole compounds” (Adir et Compagnie, priority 1993, dated 1994)
